Measured values as given in US20130281544A1, “HEPATOPROTECTANT ACTIVITY OF GARCINOL” (priority 2010, published 2013).
Marks after values point to notes of the source that are not given here.

Tested on: alcohol (Ethyl alcohol) induced hepatotoxic animal models
Assay: Serum ALT, AST, ALP and bilirubin in alcohol (ethyl alcohol) induced hepatotoxic animal models
Format: in vivo, Male Wistar Rats
Settings: EtOH; for ALP percent change / ALT percent change / AST percent change / Bilirubin percent change / ALP / ALT / AST / Bilirubin: serum; for ALP / ALT / AST / Bilirubin: Mean ± SE
Description: Doses of Garcinol (GC) used for the study: 1.25, 2.5, 5, 10 mg/kg p.o.
Standard drug: Silymarin (50 mg/kg) p.o.
Male Wistar rats, weighing 180-200 g, were given 0.5-0.6 ml ethanol orally. […] All rats had regular standard rat chow available throughout the 6-week period. Rats were weighted three times per week. [Guangjin Yuan, Zuojiong Gong *, Xiaorong Zhou, Pin Zhang, Xiaomei Sun and Xi Li. Epigallocatechin-3-Gallate Ameliorates Alcohol-Induced Liver Injury in Rats. Int. J. Mol. Sci. 2006, 7, 204-219]. Blood was collected from the retro-orbital plexus of experimental animals and no anti-coagulant was added. Blood was made to stand at room temperature for 1 hour. It was then centrifuged and clear serum was separated. The serum was then stored for analysis. Reference: (Magari et al., 2004).
(ASPARTATE AMINOTRANSFERASE and ALANINA AMINOTRANSFERASE), Reference: Ritman S, Frankel S, (1957). A colorimetric method for the determination of serum glutamic oxaloacetic and glutamic pyruvic transaminases. American Journal of Clinical Pathology; 28: 56-63.
0.2 ml of serum, collected from test and control samples, was mixed with 1.0 ml of buffer solution and incubated for 60 min at 37° C. in a water bath. After the addition of 1.0 ml of chromogen solution, the samples were kept at room temperature for 20 minutes for the reaction to proceed and 10 ml NaOH was added. The optical density was red at 546 nm after 5 min. To the blank, serum was added after the addition of chromogen solution.
(ALKALINE PHOSPHATASE), Reference: Klaus Walter and Schutt C. (1974). Acid and alkaline phosphatase in serum. In: Methods of Enzymatic Analysis. Eds. Hans Ulrich Bergmeyer, Verlag ChemieWeinheim, Academic press, Inc. New York, 2nd Edition, Vol. 2, pp. 855-64.
Alkaline phosphatase activity measurement is based on the ability of the enzyme to hydrolyze p-nitrophenol phosphate under alkaline conditions. The cleaved product p-nitrophenol is yellow in alkaline solution and is measured at 400-420 nm (Klaus and Schutt, 1974). 2.0 ml of buffered substrate was taken in the tubes ‘Test’ ‘Control’ and ‘Blank’ followed by addition of serum and distilled water (0.1 ml) in ‘Test’ and ‘Blank’ respectively and incubated in a water bath for 30 minutes at 25° C. After incubation sodium hydroxide was added (0.25 N, 2 ml) to all the tubes, which was followed by serum (0.1 ml) to the tubes marked ‘Control’. The yellow colour formed was measured spectrophotometrically against blank at 410 nm.
[BILIRUBIN (BRBN)], Reference: Malloy H T and Evelyn K A (1937). The determination of bilirubin with photoelectric colorimeter. Journal of Biological Chemistry 119: 481-490.
Serum bilirubin was estimated by the method of Malloy and Evelyn (1937). In the two sets of test tubes marked ‘Test’ and ‘Control’, serum (0.2 ml) and distilled water (1.8 ml) were added. To the tubes marked ‘Test’ and ‘Standard’ diazo reagent (0.5 ml) was added. To the test tubes marked ‘Control’ and ‘Blank’ diazo blank (0.5 ml) was added. Finally methanol (2.5 ml) was added into each test tube. The tubes were mixed and allowed to stand for 30 minutes in dark. The tubes were read after 10 minutes at 540 nm.

C=C(C)[C@@H](CC=C(C)C)C[C@@]12C[C@@H](CC=C(C)C)C(C)(C)[C@@](CC=C(C)C)(C(=O)C(C(=O)c3ccc(O)c(O)c3)=C1O)C2=O [Garcinol]
Average Protection (1.25 mg/kg p.o.): 17.32%
Average Protection (2.50 mg/kg p.o.): 29.82%
Average Protection (5.00 mg/kg p.o.): 39.39%
Average Protection (10.00 mg/kg p.o.): 40.20%
ALP percent change (1.25 mg/kg p.o.): (14.91) %
ALT percent change (1.25 mg/kg p.o.): (27.45) %
AST percent change (1.25 mg/kg p.o.): (20.20) %
Bilirubin percent change (1.25 mg/kg p.o.): (6.73) %
ALP (1.25 mg/kg p.o.): 88.68 ± 8.58 μmol min/lt
ALT (1.25 mg/kg p.o.): 1320.40 ± 52.20* μmol min/lt
AST (1.25 mg/kg p.o.): 858.80 ± 32.64 μmol min/lt
Bilirubin (1.25 mg/kg p.o.): 1.94 ± 0.02 mg %
ALP percent change (2.50 mg/kg p.o.): (26.96) %
ALT percent change (2.50 mg/kg p.o.): (40.63) %
AST percent change (2.50 mg/kg p.o.): (32.47) %
Bilirubin percent change (2.50 mg/kg p.o.): (19.23) %
ALP (2.50 mg/kg p.o.): 76.12 ± 4.88* μmol min/lt
ALT (2.50 mg/kg p.o.): 1080.50 ± 48.56** μmol min/lt
AST (2.50 mg/kg p.o.): 726.78 ± 46.50* μmol min/lt
Bilirubin (2.50 mg/kg p.o.): 1.68 ± 0.04* mg %
ALP percent change (5.00 mg/kg p.o.): (34.44) %
ALT percent change (5.00 mg/kg p.o.): (51.83) %
AST percent change (5.00 mg/kg p.o.): (39.58) %
Bilirubin percent change (5.00 mg/kg p.o.): (31.73) %
ALP (5.00 mg/kg p.o.): 68.32 ± 5.60** μmol min/lt
ALT (5.00 mg/kg p.o.): 876.58 ± 76.80** μmol min/lt
AST (5.00 mg/kg p.o.): 650.26 ± 56.20** μmol min/lt
Bilirubin (5.00 mg/kg p.o.): 1.42 ± 0.06** mg %
ALP percent change (10.00 mg/kg p.o.): (33.79) %
ALT percent change (10.00 mg/kg p.o.): (52.15) %
AST percent change (10.00 mg/kg p.o.): (41.23) %
Bilirubin percent change (10.00 mg/kg p.o.): (33.65) %
ALP (10.00 mg/kg p.o.): 69.00 ± 4.82** μmol min/lt
ALT (10.00 mg/kg p.o.): 870.80 ± 48.40** μmol min/lt
AST (10.00 mg/kg p.o.): 632.48 ± 44.56** μmol min/lt
Bilirubin (10.00 mg/kg p.o.): 1.39 ± 0.04** mg %
